Measured values published in article PMC7366380, “Discovery of a Potent and Selective Covalent Inhibitor and Activity-Based Probe for the Deubiquitylating Enzyme UCHL1, with Antifibrotic Activity” (Journal of the American Chemical Society, 2020).
“And” between values parts separate entries of the source, which are not always exact repeats. Equal entries are not always repeated. One block for each compound: values may come before it.

How the values were obtained:
Assay in all cases: In-cell proteome-wide competitive ABPP, HEK293: other DUBs and proteins
[1] = target: DUBs and other proteins in HEK293 cells (Homo sapiens, UniProt P51784); conditions: replicates A-C; for Log2 reporter intensity values: USP11: DMSO substract (FC); for Log2 reporter intensity values: USP11, DMSO subtracted
Chain of DUBs and other proteins in HEK293 cells (Homo sapiens, UniProt P51784) (P51784 whole entry): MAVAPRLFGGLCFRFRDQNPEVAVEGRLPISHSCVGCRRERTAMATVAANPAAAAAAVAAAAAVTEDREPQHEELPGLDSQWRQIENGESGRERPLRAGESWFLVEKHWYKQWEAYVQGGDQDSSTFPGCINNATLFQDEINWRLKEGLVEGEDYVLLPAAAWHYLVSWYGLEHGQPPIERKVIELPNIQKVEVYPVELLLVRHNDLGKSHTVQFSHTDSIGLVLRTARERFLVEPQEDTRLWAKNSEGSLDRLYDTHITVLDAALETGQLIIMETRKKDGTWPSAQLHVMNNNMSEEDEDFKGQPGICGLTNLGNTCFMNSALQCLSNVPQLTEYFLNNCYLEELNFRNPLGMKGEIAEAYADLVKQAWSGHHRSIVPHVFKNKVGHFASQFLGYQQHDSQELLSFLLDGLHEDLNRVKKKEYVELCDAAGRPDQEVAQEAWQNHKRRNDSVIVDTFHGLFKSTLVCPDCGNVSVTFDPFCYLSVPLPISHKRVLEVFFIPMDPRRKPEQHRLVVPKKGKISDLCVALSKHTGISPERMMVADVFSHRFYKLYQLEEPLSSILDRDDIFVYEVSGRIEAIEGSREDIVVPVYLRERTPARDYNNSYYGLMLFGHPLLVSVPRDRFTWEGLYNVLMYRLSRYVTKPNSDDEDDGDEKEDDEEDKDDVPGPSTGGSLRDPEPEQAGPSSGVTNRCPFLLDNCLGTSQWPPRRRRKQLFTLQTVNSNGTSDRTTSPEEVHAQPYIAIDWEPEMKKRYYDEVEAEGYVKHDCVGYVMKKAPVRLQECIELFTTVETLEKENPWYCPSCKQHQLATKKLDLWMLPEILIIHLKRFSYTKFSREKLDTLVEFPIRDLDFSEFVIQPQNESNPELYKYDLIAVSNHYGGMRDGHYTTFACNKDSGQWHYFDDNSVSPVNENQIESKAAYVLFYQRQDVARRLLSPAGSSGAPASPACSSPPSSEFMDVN

[2] = target: DUBs and other proteins in HEK293 cells (Homo sapiens, UniProt P54578); conditions: replicates A-C; for Log2 reporter intensity values: USP14: competition with ABP 2, DMSO substract (FC); for Log2 reporter intensity values: USP14, DMSO subtracted
Chain of DUBs and other proteins in HEK293 cells (Homo sapiens, UniProt P54578) (P54578 whole entry): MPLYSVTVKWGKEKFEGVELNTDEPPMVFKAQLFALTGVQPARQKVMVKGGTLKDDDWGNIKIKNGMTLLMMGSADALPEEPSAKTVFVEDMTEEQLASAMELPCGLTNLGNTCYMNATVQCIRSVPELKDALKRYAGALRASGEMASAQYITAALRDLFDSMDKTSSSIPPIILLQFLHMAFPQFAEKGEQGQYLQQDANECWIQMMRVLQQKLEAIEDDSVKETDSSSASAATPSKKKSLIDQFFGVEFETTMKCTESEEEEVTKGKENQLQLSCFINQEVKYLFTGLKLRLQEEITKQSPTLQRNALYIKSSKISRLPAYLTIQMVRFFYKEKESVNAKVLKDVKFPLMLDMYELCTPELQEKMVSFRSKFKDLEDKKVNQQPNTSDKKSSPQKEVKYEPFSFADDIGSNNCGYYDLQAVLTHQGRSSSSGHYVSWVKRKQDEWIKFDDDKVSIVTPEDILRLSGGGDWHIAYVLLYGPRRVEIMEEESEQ

[3] = target: DUBs and other proteins in HEK293 cells (Homo sapiens, UniProt Q7L5N1); conditions: for Log2 reporter intensity values, COPS6: TMT replicates; for Log2 reporter intensity values: COPS6: DMSO substract (FC); for Log2 reporter intensity values: COPS6 / Log2 reporter intensity values: replicates A-C; for Log2 t-test Difference / Log2 reporter intensity values: COPS6
Chain of DUBs and other proteins in HEK293 cells (Homo sapiens, UniProt Q7L5N1) (Q7L5N1 whole entry): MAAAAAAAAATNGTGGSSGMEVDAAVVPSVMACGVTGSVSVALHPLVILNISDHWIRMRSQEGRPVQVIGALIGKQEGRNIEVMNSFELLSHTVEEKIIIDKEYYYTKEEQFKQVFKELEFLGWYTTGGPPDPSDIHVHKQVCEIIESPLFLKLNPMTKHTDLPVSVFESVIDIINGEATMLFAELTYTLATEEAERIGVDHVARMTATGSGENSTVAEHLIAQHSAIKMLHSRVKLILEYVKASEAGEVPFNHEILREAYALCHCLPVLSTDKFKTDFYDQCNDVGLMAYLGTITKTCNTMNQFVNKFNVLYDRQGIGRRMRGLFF

[4] = target: T1, DUBs and other proteins in HEK293 cells (Homo sapiens, UniProt Q9Y4E8); conditions: replicates A-C; for Log2 reporter intensity values: USP15: DMSO substract (FC); for Log2 reporter intensity values: USP15, DMSO subtracted
T1 sequence (Q9Y4E8 1-981): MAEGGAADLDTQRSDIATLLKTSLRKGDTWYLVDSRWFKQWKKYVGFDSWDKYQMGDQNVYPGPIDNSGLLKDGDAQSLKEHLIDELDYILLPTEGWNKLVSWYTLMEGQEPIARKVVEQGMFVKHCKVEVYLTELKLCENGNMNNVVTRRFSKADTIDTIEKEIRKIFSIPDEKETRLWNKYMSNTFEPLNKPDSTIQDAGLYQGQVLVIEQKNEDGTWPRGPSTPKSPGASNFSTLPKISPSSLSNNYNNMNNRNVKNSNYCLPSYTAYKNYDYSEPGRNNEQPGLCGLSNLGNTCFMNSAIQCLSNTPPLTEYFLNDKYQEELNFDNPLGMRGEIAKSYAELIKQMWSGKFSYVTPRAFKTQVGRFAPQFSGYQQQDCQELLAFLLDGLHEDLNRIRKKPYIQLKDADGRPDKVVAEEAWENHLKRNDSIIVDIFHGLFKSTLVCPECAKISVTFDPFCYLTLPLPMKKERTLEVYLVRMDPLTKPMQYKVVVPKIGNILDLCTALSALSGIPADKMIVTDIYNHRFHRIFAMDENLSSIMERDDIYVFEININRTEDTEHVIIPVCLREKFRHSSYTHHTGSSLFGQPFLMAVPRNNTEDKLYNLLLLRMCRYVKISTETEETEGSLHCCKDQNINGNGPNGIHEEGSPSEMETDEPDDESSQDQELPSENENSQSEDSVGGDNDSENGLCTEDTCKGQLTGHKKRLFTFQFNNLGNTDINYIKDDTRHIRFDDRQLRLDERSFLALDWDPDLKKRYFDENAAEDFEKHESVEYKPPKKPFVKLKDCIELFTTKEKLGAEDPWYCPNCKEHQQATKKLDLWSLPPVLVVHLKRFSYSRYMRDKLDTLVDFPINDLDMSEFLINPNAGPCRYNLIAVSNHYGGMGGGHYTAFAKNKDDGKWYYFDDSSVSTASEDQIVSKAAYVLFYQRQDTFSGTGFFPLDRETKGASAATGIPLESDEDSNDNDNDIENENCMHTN

[5] = 1 at 1 μM, competition with ABP 2
[6] = 1 at 4 μM, competition with ABP 2
[7] = LDN at 5 μM, competition with ABP 2
[8] = LDN at 25 μM, competition with ABP 2

Log2 reporter intensity values: USP11 [1, 5]: 1.082 and 1.001 and 1.048 | Log2 reporter intensity values: USP11 [1, 6]: 1.053 and 0.9981 and 1.068 | Log2 reporter intensity values ([1]; 1_1 μM): 0.08158 and 0.0009743 and 0.04766 | Log2 reporter intensity values ([1]; 1_4 μM): 0.05297 and -0.002249 and 0.06752 | Log2 reporter intensity values ([1]; 1 at 1 μM): 0.1136 and 0.00189 and 0.06764 | Log2 reporter intensity values ([1]; 1 at 4 μM): 0.07493 and -0.002761 and 0.09472 | Log2 reporter intensity values: USP14 ([2]; 1 at 1 μM): 1.068 and 1.073 and 1.08 | Log2 reporter intensity values: USP14 ([2]; 1 at 4 μM): 1.026 and 1.014 and 1.052 | Log2 reporter intensity values ([2]; 1_1 μM): 0.06753 and 0.073 and 0.0796 | Log2 reporter intensity values ([2]; 1_4 μM): 0.02617 and 0.01386 and 0.05174 | Log2 reporter intensity values ([2]; 1 at 1 μM): 0.09459 and 0.102 and 0.1108 | Log2 reporter intensity values ([2]; 1 at 4 μM): 0.03759 and 0.02017 and 0.07309 | Log2 reporter intensity values, COPS6 ([3]; 1 μM 1 (60 min) + 20 nM ABP 2 (10 min), All values): -0.0741 and -0.01578 and 0.003018 | Log2 reporter intensity values, COPS6 ([3]; 1 μM 1 (60 min) + 20 nM ABP 2 (10 min), DMSO subtracted): -0.08651 and -0.02819 and -0.009395 | Log2 reporter intensity values, COPS6 ([3]; 4 μM 1 (60 min) + 20 nM ABP 2 (10 min), All values): 0.02899 and -0.02559 and 0.0005347 | Log2 reporter intensity values, COPS6 ([3]; 4 μM 1 (60 min) + 20 nM ABP 2 (10 min), DMSO subtracted): 0.01657 and -0.038 and -0.01188 | Log2 reporter intensity values: COPS6 [3, 5]: 0.9418 and 0.9806 and 0.9935 | Log2 reporter intensity values: COPS6 [3, 6]: 1.012 and 0.974 and 0.9918 | Log2 t-test Difference ([3]; 1 - 1 μM): -0.08501 | Log2 t-test Difference ([3]; 1 - 4 μM): -0.05474 | Log2 reporter intensity values ([3]; 1_1 μM, DMSO subtracted): -0.05832 and -0.01946 and -0.006603 | Log2 reporter intensity values ([3]; 1_4 μM, DMSO subtracted): 0.01144 and -0.02611 and -0.008312 | Log2 reporter intensity values ([3]; 1 at 1 μM, DMSO subtracted): -0.08651 and -0.02819 and -0.009395 | Log2 reporter intensity values ([3]; 1 at 4 μM, DMSO subtracted): 0.01657 and -0.038 and -0.01188 | Log2 reporter intensity values: USP15 [4, 5]: 0.9886 and 1.029 and 1.017 | Log2 reporter intensity values: USP15 [4, 6]: 1.093 and 1.191 and 1.05 | Log2 reporter intensity values ([4]; 1_1 μM): -0.01164 and 0.02918 and 0.01631 | Log2 reporter intensity values ([4]; 1_4 μM): 0.09302 and 0.1906 and 0.04957 | Log2 reporter intensity values ([4]; 1 at 1 μM): -0.0165 and 0.04186 and 0.02371 | Log2 reporter intensity values ([4]; 1 at 4 μM): 0.1287 and 0.252 and 0.07016
SMILES: N#CN1CCC[C@H]1C(=O)N1CCc2c(-c3c[nH]c4ncccc34)cccc21 [Compound 1]

SMILES: CC(=O)O/N=C1\C(=O)N(Cc2cc(Cl)ccc2Cl)c2ccc(Cl)cc21 [LDN]
Log2 reporter intensity values: USP11 [1, 7]: 1.03 and 1.059 and 1.019 | Log2 reporter intensity values: USP11 [1, 8]: 1.058 and 0.9885 and 1.048 | Log2 reporter intensity values ([1]; LDN at 5 μM): 0.04194 and 0.08295 and 0.02661 | Log2 reporter intensity values ([1]; LDN at 25 μM): 0.082 and -0.01664 and 0.06827 | Log2 reporter intensity values ([1]; LDN_5 μM): 0.02916 and 0.05885 and 0.01828 | Log2 reporter intensity values ([1]; LDN_25 μM): 0.05815 and -0.0118 and 0.04812 | Log2 reporter intensity values: USP14 ([2]; LDN at 5 μM): 1.178 and 1.18 and 1.165 | Log2 reporter intensity values: USP14 ([2]; LDN at 25 μM): 1.092 and 1.124 and 1.125 | Log2 reporter intensity values ([2]; LDN at 5 μM): 0.2361 and 0.2386 and 0.2201 | Log2 reporter intensity values ([2]; LDN at 25 μM): 0.1275 and 0.1688 and 0.1694 | Log2 reporter intensity values ([2]; LDN_5 μM): 0.1776 and 0.1796 and 0.1646 | Log2 reporter intensity values ([2]; LDN_25 μM): 0.0922 and 0.1239 and 0.1243 | Log2 reporter intensity values, COPS6 ([3]; 5 μM LDN-57444 (60 min) + 20 nM ABP 2 (10 min), All values): 0.1306 and 0.0287 and 0.0623 | Log2 reporter intensity values, COPS6 ([3]; 5 μM LDN-57444 (60 min) + 20 nM ABP 2 (10 min), DMSO subtracted): 0.1181 and 0.01629 and 0.04989 | Log2 reporter intensity values, COPS6 ([3]; 25 μM LDN-57444 (60 min) + 20 nM ABP 2 (10 min), All values): -0.04892 and -0.02797 and -0.1172 | Log2 reporter intensity values, COPS6 ([3]; 25 μM LDN-57444 (60 min) + 20 nM ABP 2 (10 min), DMSO subtracted): -0.06133 and -0.04038 and -0.1296 | Log2 t-test Difference ([3]; LDN - 5 μM): 0.0178 | Log2 reporter intensity values ([3]; LDN at 5 μM, DMSO subtracted): 0.1181 and 0.01629 and 0.04989 | Log2 reporter intensity values ([3]; LDN at 25 μM, DMSO subtracted): -0.06133 and -0.04038 and -0.1296 | Log2 reporter intensity values ([3]; LDN_5 μM, DMSO subtracted): 0.08523 and 0.01124 and 0.03507 | Log2 reporter intensity values ([3]; LDN_25 μM, DMSO subtracted): -0.04173 and -0.02772 and -0.08603 | Log2 reporter intensity values: COPS6 [3, 7]: 1.085 and 1.011 and 1.035 | Log2 reporter intensity values: COPS6 [3, 8]: 0.9584 and 0.9724 and 0.9141 | Log2 reporter intensity values: USP15 [4, 7]: 1.005 and 0.9596 and 1.069 | Log2 reporter intensity values: USP15 [4, 8]: 1.047 and 0.9593 and 0.9363 | Log2 reporter intensity values ([4]; LDN at 5 μM): 0.007561 and -0.05945 and 0.09653 | Log2 reporter intensity values ([4]; LDN at 25 μM): 0.06615 and -0.06 and -0.09494 | Log2 reporter intensity values ([4]; LDN_5 μM): 0.004993 and -0.04063 and 0.06894 | Log2 reporter intensity values ([4]; LDN_25 μM): 0.04666 and -0.041 and -0.06395

Log2 reporter intensity values: USP11 ([1]; 20 nM ABP 2 alone): 0.9204 and 1.006 and 0.9863 | Log2 reporter intensity values, COPS6 ([3]; 20 nM ABP 2 (10 min), no competitor, All values): 0.06809 and 0.08942 and 0.01065 | Log2 reporter intensity values, COPS6 ([3]; 20 nM ABP 2 (10 min), no competitor, DMSO subtracted): 0.05567 and 0.07701 and -0.001766 | Log2 reporter intensity values: COPS6 ([3]; 20 nM ABP 2 alone): 1.039 and 1.055 and 0.9988 | Log2 t-test Difference ([3]; ABP 2 - 20 nM): 0.04364 | Log2 reporter intensity values: USP15 ([4]; 20 nM ABP 2 alone): 1.045 and 1.025 and 1.159
SMILES: C#Cc1cnc2[nH]cc(-c3cccc4c3CCN4C(=O)[C@@H]3CCCN3C#N)c2c1 [Compound 2]
Log2 reporter intensity values ([1]; 20 nM ABP 2): -0.1196 and 0.008385 and -0.01996 and -0.07989 and 0.005492 and -0.01408 | Log2 reporter intensity values ([2]; 20 nM ABP 2): 0.1674 and 0.2186 and 0.2005 and 0.1633 and 0.1489 | Log2 reporter intensity values ([3]; 20 nM ABP 2, DMSO subtracted): 0.05567 and 0.07701 and -0.001766 and 0.03923 and 0.05472 and -0.001335 | Log2 reporter intensity values ([4]; 20 nM ABP 2): 0.06335 and 0.03549 and 0.2127 and 0.04463 and 0.02465 and 0.1586
